According to the supplement of paper PMC10307832:

Key:
Assay in all cases: relative viability (nuclei count vs DMSO), 5 days (fraction); higher = more cells survive
KIN001-266 + Phenformin = compound: CCN1CCC(CC1)N2C=C(N=N2)CNC3=CC4=C(C(=CN=C4C(=C3)Cl)C#N)NC5=CC(=C(C=C5)F)Cl [KIN001-266] + N=C(N)NC(=N)NCCc1ccccc1 [Phenformin] (partner 250 µM)
Method in brief: (§1)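 Values are medians from duplicate plates. Each reflects relative viability, defined as the nuclei count of treated wells over that of vehicle wells. Lung cancer cell lines in 1536-well plates were pin-tool dosed one day after seeding with one drug alone or with a fixed anchor-drug dose plus five library-drug doses (not always all listed) in √10 steps, then fixed, stained and imaged at 4× after 5 days.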

KIN001-266 + Olaparib = compound: CCN1CCC(CC1)N2C=C(N=N2)CNC3=CC4=C(C(=CN=C4C(=C3)Cl)C#N)NC5=CC(=C(C=C5)F)Cl [KIN001-266] + O=C(c1cc(Cc2n[nH]c(=O)c3ccccc23)ccc1F)N1CCN(C(=O)C2CC2)CC1 [Olaparib] (partner 8 µM)
Method in brief: as §1

KIN001-266 + Trametinib = compound: CCN1CCC(CC1)N2C=C(N=N2)CNC3=CC4=C(C(=CN=C4C(=C3)Cl)C#N)NC5=CC(=C(C=C5)F)Cl [KIN001-266] + CC(=O)Nc1cccc(-n2c(=O)n(C3CC3)c(=O)c3c(Nc4ccc(I)cc4F)n(C)c(=O)c(C)c32)c1 [Trametinib] (partner 0.02 µM)
Method in brief: as §1

KIN001-266 = compound: CCN1CCC(CC1)N2C=C(N=N2)CNC3=CC4=C(C(=CN=C4C(=C3)Cl)C#N)NC5=CC(=C(C=C5)F)Cl [KIN001-266]
Method in brief: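 Only plates meeting two conditions passed: control CV below 25% and at least one doubling. Lung cancer cell lines, kept overnight at 37 °C in 1536-well plates, were pinned with five library-drug doses (not always all listed) √10 apart on vehicle-anchored plates and grown 5 days without medium change. A one-step fix, permeabilisation and Hoechst stain preceded 4× imaging and MetaXpress nuclear counting. Viability equals treated-well nuclei divided by vehicle-well nuclei, as the median over plates.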

Cell Line	relative viability (KIN001-266 + Phenformin; first compound 0.08 µM)	relative viability (KIN001-266 + Phenformin; first compound 0.253 µM)	relative viability (KIN001-266 + Phenformin; first compound 0.8 µM)	relative viability (KIN001-266 + Phenformin; first compound 2.53 µM)	relative viability (KIN001-266 + Phenformin; first compound 8 µM)	relative viability (KIN001-266 + Olaparib; first compound 0.08 µM)	relative viability (KIN001-266 + Olaparib; first compound 0.253 µM)	relative viability (KIN001-266 + Olaparib; first compound 0.8 µM)	relative viability (KIN001-266 + Olaparib; first compound 2.53 µM)	relative viability (KIN001-266 + Olaparib; first compound 8 µM)	relative viability (KIN001-266 + Trametinib; first compound 0.08 µM)	relative viability (KIN001-266 + Trametinib; first compound 0.253 µM)	relative viability (KIN001-266 + Trametinib; first compound 0.8 µM)	relative viability (KIN001-266 + Trametinib; first compound 2.53 µM)	relative viability (KIN001-266 + Trametinib; first compound 8 µM)	relative viability (KIN001-266; 0.08 µM)	relative viability (KIN001-266; 0.253 µM)	relative viability (KIN001-266; 0.8 µM)	relative viability (KIN001-266; 2.53 µM)	relative viability (KIN001-266; 8 µM)
NCI-H596	0.718	0.805	0.686	0.721	0.677	0.744	0.723	0.662	0.712	0.756	0.742	0.698	0.851	0.778	0.673	1.09	0.938	0.878	0.987	0.866
NCI-H1793	0.418	0.324	0.25	0.352	0.251	0.864	0.823		0.923	0.711	0.436	0.452		0.39	0.299	1.04	0.865	0.617	0.787	0.606
NCI-H1395	0.453	0.421	0.503	0.417	0.442	0.478	0.441	0.447	0.429	0.427	1.02	1.11	1.08	0.925	0.985	0.948	0.974	1.14	0.892	0.844
HCC-827	0.439	0.404	0.189	0.318	0.286	0.577	0.602	0.557	0.585	0.528	0.489	0.577	0.468	0.545	0.49	1.03	1.05	0.715	1.08	0.98
ChaGo-K-1	0.508	0.505	0.473	0.48	0.454	0.401	0.422	0.301	0.282	0.227	0.914	0.915	0.87	0.637	0.459	1.04	1.03	0.92	0.929	0.886
NCI-H2228	0.392	0.282	0.322	0.296	0.281	0.692	0.735	0.682	0.727	0.496	0.564	0.448	0.457	0.357	0.402	1.03	1.02	1.02	0.903	0.808
NCI-H2170	0.38	0.383	0.377	0.358	0.334	0.634	0.548	0.541	0.515	0.416	0.969	0.872	0.96	0.934	0.822	1	0.995	0.979	0.935	1.01
EMC-BAC-2	0.56	0.516	0.482	0.54	0.475	0.546	0.519	0.449	0.437	0.46	0.896	0.958	0.842	0.868	0.855	1.07	1.21	0.98	1.07	0.989
NCI-H522	0.656	0.641	0.653	0.629	0.591	0.672	0.785	0.665	0.559	0.483	0.78	0.907	0.797	0.638	0.706	1.13	0.937	1.05	0.925	0.914
NCI-H23	0.826	0.715	0.772	0.722	0.73	0.334	0.303	0.321	0.309	0.251	0.435	0.419	0.484	0.356	0.377	1.01	1.03	0.935	0.917	0.858
RERF-LC-KJ	0.436	0.354	0.415	0.355	0.345	0.974	0.952	0.858	0.762	0.649	0.945	0.849	0.823	0.778	0.556	1.05	1.04	0.975	0.992	0.726
NCI-H358	0.361	0.367	0.343	0.277	0.251	0.6	0.556	0.58	0.458	0.325	0.174	0.17	0.138	0.115	0.117	0.893	0.98	0.917	0.828	0.45
LC-2-ad	0.622	0.647	0.629	0.637	0.576	0.706	0.727	0.664	0.693	0.635	0.924	0.938	0.918	0.897	0.931	1.05	0.997	0.947	1.04	0.962
HCC-15	0.48	0.472	0.421	0.43	0.34	0.743	0.747	0.64	0.651	0.511	0.413	0.392	0.388	0.344	0.328	1.02	1.03	0.875	0.868	0.689
NCI-H2405	0.401	0.412	0.378	0.379	0.155	0.889	0.905	0.906	0.853	0.642	0.64	0.658	0.661	0.615	0.61	1.03	1.02	0.977	0.958	0.821
LXF-289	0.497	0.522	0.497	0.534	0.54	1.01	1.02	1.03	1.01	1.03	0.678	0.683	0.683	0.679	0.708	0.949	0.984	1	1	1.06
